Results on one compound are retold here after US11738097B2, “Curcuminoid chemotherapeutic drug carrier composition” (Imam Abdulrahman Bin Faisal University, priority 2018, dated 2023).

Each structure is given as a SMILES string.

A short description of one series: Cell viability MTT assay. Type of series: cell-based, human. Particulars: human, MCF7 cells, maintained throughout the different concentrations (10-100 μg/ml), curcumin stock 390 μg/ml. As for the experimental part:
(§1) Materials and Methods/Cell cultures: In this study, a human mammary adenocarcinoma cell line, MCF7, was used for in vitro testing. MCF7 cells were maintained in DMEM (Dulbecco's Modified Eagle Medium) (Gibco, life technologies) supplemented with 10% heat inactivated fetal bovine serum (HI-FBS) (Gibco, life technology), 1% Penicillin Streptomycin (100×-Gibco, life technology), and 1% MEM NEAA (MEM non-essential amino acids) (100×-Gibco, life technology). Cells were kept in a humidified incubator at 37° C. with 5% CO2. For the experimental setup, MCF7 cells were seeded on a 96-well plate at a density of 10,000 cells/well. On the next day, cells were shifted to the starve media (0.5% HI-FBS containing media) for 24 h before treatment. […]
(§2) Cell viability MTT Assay: The viability of cells was tested using 3-(4,5-dimethylthiazol-2-yl)-2,5-diphenyltetrazolium bromide (MTT) assay. […] The change in color intensity was measured at 570 nm wavelength using SYNERGY-neo2 BioTek ELISA reader. […] The reading of each triplicate was averaged and subtracted from the averaged MTT background control reading. […]
(§3) To investigate the cytotoxic effects of curcumin-loaded/Fe2O3 impregnated mesocellular foam silica nanoparticles, the inventors assessed cell viability using the MTT assay on MCF7 cells. […]
A general note: Tetrazolium assays rely on reduction of a dye to a coloured formazan, in cell work by metabolically active cells.

For another series, the system named is MCF7 cells. As to the kind of experiment: Cell viability MTT assay. Particulars: 10, 20, 40, 80, 100 μg/ml, 24 h. Type of series: cell-based, human. As for the experimental part: as §1, §2, §3

For `COc1cc(/C=C/C(=O)CC(=O)/C=C/c2ccc(O)c(OC)c2)ccc1O` [Curcumin], the viability (commonly a per cent measure of how many cells are alive, often set against a control) at 24 h in the series “Cell viability MTT assay” was 66.6%. Moreover, in the series on MCF7 cells, the “effect on cell viability (in words)” value is recorded as “significantly reduced cell viability”.
